Measurements reported in publication PMC9437101, “Curcumin-based-fluorescent probes targeting ALDH1A3 as a promising tool for glioblastoma precision surgery and early diagnosis” (Communications Biology, 2022).
Values joined by “and” are separate entries in the source; they are usually repeats but may differ in a detail not shown here. Identical values can stand only once.

T1: ALDH1A2 (Homo sapiens, UniProt O94788)
T1 construct: E. coli BL21 (DE3) were transformed with the full-length expression vector of each isoform; His-tag; made in house; host or cells: E. coli BL21 (DE3)
T1 sequence (O94788 1-518): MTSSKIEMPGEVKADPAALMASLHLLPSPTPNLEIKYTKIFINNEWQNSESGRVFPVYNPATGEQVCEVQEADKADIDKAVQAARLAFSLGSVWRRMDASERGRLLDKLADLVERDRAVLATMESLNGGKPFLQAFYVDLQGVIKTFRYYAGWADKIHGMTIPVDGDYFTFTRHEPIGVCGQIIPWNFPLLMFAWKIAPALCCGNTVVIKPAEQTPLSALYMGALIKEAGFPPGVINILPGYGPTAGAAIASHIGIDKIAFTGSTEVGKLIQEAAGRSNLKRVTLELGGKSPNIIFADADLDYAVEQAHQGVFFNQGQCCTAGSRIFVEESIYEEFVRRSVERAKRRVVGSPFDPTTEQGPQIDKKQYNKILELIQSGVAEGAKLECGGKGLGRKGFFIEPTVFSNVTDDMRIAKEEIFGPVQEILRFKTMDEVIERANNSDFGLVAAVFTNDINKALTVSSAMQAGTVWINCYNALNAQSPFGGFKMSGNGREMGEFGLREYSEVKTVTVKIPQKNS

T2: ALDH1A1 (Homo sapiens, UniProt P00352)
T2 construct: E. coli BL21 (DE3) were transformed with the full-length expression vector of each isoform; His-tag; made in house; host or cells: E. coli BL21 (DE3)
T2 sequence (P00352 1-501): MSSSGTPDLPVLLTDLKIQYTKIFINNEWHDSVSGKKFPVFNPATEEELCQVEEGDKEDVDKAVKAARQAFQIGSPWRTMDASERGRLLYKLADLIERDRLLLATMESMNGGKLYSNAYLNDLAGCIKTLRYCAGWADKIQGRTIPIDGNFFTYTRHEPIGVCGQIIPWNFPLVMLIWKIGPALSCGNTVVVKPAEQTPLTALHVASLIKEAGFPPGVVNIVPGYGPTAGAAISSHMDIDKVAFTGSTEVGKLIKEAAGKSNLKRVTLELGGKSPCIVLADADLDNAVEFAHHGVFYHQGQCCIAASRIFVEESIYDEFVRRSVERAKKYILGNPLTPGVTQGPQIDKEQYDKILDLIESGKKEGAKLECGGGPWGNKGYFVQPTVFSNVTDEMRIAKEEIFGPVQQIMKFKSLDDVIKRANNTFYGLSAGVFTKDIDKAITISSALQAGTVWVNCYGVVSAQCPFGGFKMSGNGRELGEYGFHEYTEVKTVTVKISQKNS


What was measured:
ALDH1A2 = target: T1, ALDH1A2; assay: LC-HRMS analysis of isoenzyme activity in presence of probe; format: biochemical; settings: ALDH1A2, 1 h
Procedure: (§1) These analyses were carried out by using UPLC-HRMS procedure with Vanquish UPLC system coupled to a Thermo Scientific Q-Exactive Plus, operating in negative electrospray ionization mode. The chromatographic separation was carried out using a Phenomenex Synergi 4 µ Polar-RP 80 A (150 × 2 mm) equipped with a Phenomenex Polar-RP (4 mm × 2 mm) security guard column. The mobile phase consisted of A: acetonitrile 0.1% formic acid and B: 0.1% formic acid. We used a linear elution gradient, starting from 80% of A to 5% A in 3 min, 3 min at 5% A, an equilibration of 4 min for a total run time of 10.00 min, at 300 µl/min flow rate. The autosampler temperature was set at 15 °C, the injection volume was 5 µl and column was maintained at 40 °C. The heated electrospray ionization source was used, with a spray voltage of […], with a capillary temperature of 300 °C, a heater temperature of 350 °C, a sheat gas flow of 45 arbitrary units (AU), an auxiliary gas flow of 10 AU and a sweep gas flow of 0 AU. During the Parallel Reaction Monitoring acquisition in negative ion mode, the instrument operated at 17,500 resolution in presence of the inclusion list (m/z = 596.20384 and m/z = 612.19875 for Probe 10 and Probe 10-COOH respectively; m/z = 534.18819 and m/z = 506.156888 for Probe 11 and Probe 11-COOH respectively) with an automatic gain control target of 2 × 10^5 charges and a maximum injection time of 100 ms. Before injecting the samples, the blanks in the list were analyzed and every biological sample was analyzed in duplicate. The biological samples analyzed were as follow: (1) Enzymatic assay Buffer; (2) Enzymatic assay Buffer + NAD^+; (3) Enzymatic assay Buffer + Probe 10 or Probe 11; (4) Enzymatic assay Buffer + ALDH1A1; (5) Enzymatic assay Buffer + ALDH1A2; (6) Enzymatic assay Buffer + ALDH1A3; (7) Enzymatic assay Buffer + ALDH1A1 + Probe 10 or Probe 11; (8) Enzymatic assay Buffer + ALDH1A2 + Probe 10 or Probe 11; (9) Enzymatic assay Buffer + ALDH1A3 + Probe 10 or Probe 11. All samples were diluted 1:1 with ACN, then 1:100 in ACN-Water 1:1 prior the LC-HRMS analysis.

ALDH1A1 = target: T2, ALDH1A1; assay: as above; format: biochemical; settings: ALDH1A1, 1 h
Procedure: as §1

[1] = LC-HRMS analysis, enzymatic assay buffer + probe without enzyme; settings: 1 h
Procedure: These analyses were carried out by using UPLC-HRMS procedure with Vanquish UPLC system coupled to a Thermo Scientific Q-Exactive Plus, operating in negative electrospray ionization mode. The chromatographic separation was carried out using a Phenomenex Synergi 4 µ Polar-RP 80 A (150 × 2 mm) equipped with a Phenomenex Polar-RP (4 mm × 2 mm) security guard column. The mobile phase consisted of A: acetonitrile 0.1% formic acid and B: 0.1% formic acid. We used a linear elution gradient, starting from 80% of A to 5% A in 3 min, 3 min at 5% A, an equilibration of 4 min for a total run time of 10.00 min, at 300 µl/min flow rate. The autosampler temperature was set at 15 °C, the injection volume was 5 µl and column was maintained at 40 °C. […] Before injecting the samples, the blanks in the list were analyzed and every biological sample was analyzed in duplicate. The biological samples analyzed were as follow: (1) Enzymatic assay Buffer; (2) Enzymatic assay Buffer + NAD^+; (3) Enzymatic assay Buffer + Probe 10 or Probe 11; (4) Enzymatic assay Buffer + ALDH1A1; (5) Enzymatic assay Buffer + ALDH1A2; (6) Enzymatic assay Buffer + ALDH1A3; (7) Enzymatic assay Buffer + ALDH1A1 + Probe 10 or Probe 11; (8) Enzymatic assay Buffer + ALDH1A2 + Probe 10 or Probe 11; (9) Enzymatic assay Buffer + ALDH1A3 + Probe 10 or Probe 11. […]

[2] = substrate: COc1cc(/C=C/C(O)=C/C(=O)/C=C/c2ccc(OCc3cn(CCOc4ccc(C=O)cc4)nn3)c(OC)c2)ccc1O; assay: KM evaluation, probe as substrate (NADH absorbance 340 nm); format: biochemical, human; settings: other: probe as substrate; pH 8.0; 25.0 °C
Procedure: The catalytic activity of the ALDH1As isoenzymes in complex with probe 10 was tested on a Tecan Sunrise 96 Multiplate Reader with Greiner Bio-One 96-UV-Transparent Microplates. […] Each reaction mix was preincubated for 10 min at 25 °C before the analysis. The catalytic activity was measured by monitoring the absorbance at 340 nm (εNADH = 6220 M^−1 cm^−1) for 12 h at 25 °C and the inhibitory parameters were calculated by processing the raw data on GraphPad.

Molecule | AREA TIC of Probe 10-COOH formed from Probe 10 (ALDH1A2) | AREA TIC of Probe 10-COOH formed from Probe 10 (ALDH1A1) | AREA TIC of Probe 10-COOH formed from Probe 10 [1] | Km [2]
COc1cc(/C=C/C(O)=C/C(=O)/C=C/c2ccc(OCc3cn(CCOc4ccc(C(=O)O)cc4)nn3)c(OC)c2)ccc1O [Probe 10-COOH] | 18647884 and 19590595 and 21767211 and 22597746 | 26353656 and 30637066 and 18030552 and 17027138 | 0 | –
ALDH1A1 (Homo sapiens) (protein, E. coli BL21 (DE3) were transformed with the full-length expression vector of each isoform; His-tag; made in house; host or cells: E. coli BL21 (DE3)) MSSSGTPDLPVLLTDLKIQYTKIFINNEWHDSVSGKKFPVFNPATEEELCQVEEGDKEDVDKAVKAARQAFQIGSPWRTMDASERGRLLYKLADLIERDRLLLATMESMNGGKLYSNAYLNDLAGCIKTLRYCAGWADKIQGRTIPIDGNFFTYTRHEPIGVCGQIIPWNFPLVMLIWKIGPALSCGNTVVVKPAEQTPLTALHVASLIKEAGFPPGVVNIVPGYGPTAGAAISSHMDIDKVAFTGSTEVGKLIKEAAGKSNLKRVTLELGGKSPCIVLADADLDNAVEFAHHGVFYHQGQCCIAASRIFVEESIYDEFVRRSVERAKKYILGNPLTPGVTQGPQIDKEQYDKILDLIESGKKEGAKLECGGGPWGNKGYFVQPTVFSNVTDEMRIAKEEIFGPVQQIMKFKSLDDVIKRANNTFYGLSAGVFTKDIDKAITISSALQAGTVWVNCYGVVSAQCPFGGFKMSGNGRELGEYGFHEYTEVKTVTVKISQKNS | – | – | – | 255.2 µM
ALDH1A2 (Homo sapiens) (protein, E. coli BL21 (DE3) were transformed with the full-length expression vector of each isoform; His-tag; made in house; host or cells: E. coli BL21 (DE3)) MTSSKIEMPGEVKADPAALMASLHLLPSPTPNLEIKYTKIFINNEWQNSESGRVFPVYNPATGEQVCEVQEADKADIDKAVQAARLAFSLGSVWRRMDASERGRLLDKLADLVERDRAVLATMESLNGGKPFLQAFYVDLQGVIKTFRYYAGWADKIHGMTIPVDGDYFTFTRHEPIGVCGQIIPWNFPLLMFAWKIAPALCCGNTVVIKPAEQTPLSALYMGALIKEAGFPPGVINILPGYGPTAGAAIASHIGIDKIAFTGSTEVGKLIQEAAGRSNLKRVTLELGGKSPNIIFADADLDYAVEQAHQGVFFNQGQCCTAGSRIFVEESIYEEFVRRSVERAKRRVVGSPFDPTTEQGPQIDKKQYNKILELIQSGVAEGAKLECGGKGLGRKGFFIEPTVFSNVTDDMRIAKEEIFGPVQEILRFKTMDEVIERANNSDFGLVAAVFTNDINKALTVSSAMQAGTVWINCYNALNAQSPFGGFKMSGNGREMGEFGLREYSEVKTVTVKIPQKNS | – | – | – | 220.0 µM
